One block for each molecule: values may come before it.
Assays:
Format in all cases: ADME, organism-based
[1] = Drug concentration in Epithelial lining fluid of healthy human at 500 mg, po administered as single dose after 24 hrs; settings: read-out: Drug uptake
[2] = Drug concentration in Alveolar macrophage of healthy human at 500 mg, po administered as single dose after 24 hrs; settings: alveolar macrophages, read-out: Drug uptake
Homo sapiens [3] = experiment: Cmax in healthy human plasma assessed as EDP-420 9-keto level at 200 mg, po once daily for 3 days measured after 1 day by HPLC-tandem mass spectrometry; set-up: dose 200 mg, route oral; settings: in vivo, 24 h
Homo sapiens [4] = experiment: Cmax in healthy human plasma assessed as EDP-420 9-keto level at 200 mg, po once daily for 3 days measured after 3 days by HPLC-tandem mass spectrometry; set-up: dose 200 mg, route oral; settings: in vivo, 72 h
Homo sapiens [5] = experiment: Tmax in healthy human plasma assessed as EDP-420 9-keto level at 200 mg, po once daily for 3 days measured after 1 day; settings: in vivo, 24 h
Homo sapiens [6] = experiment: Tmax in healthy human plasma assessed as EDP-420 9-keto level at 200 mg, po once daily for 3 days measured after 3 days; settings: in vivo, 72 h
Homo sapiens [7] = experiment: AUC (0 to last) in healthy human plasma assessed as EDP-420 9-keto level at 200 mg, po once daily for 3 days measured after 1 day; set-up: dose 200 mg, time 0 - last, route oral; settings: in vivo, 24 h
Homo sapiens [8] = experiment: AUC (0 to last) in healthy human plasma assessed as EDP-420 9-keto level at 200 mg, po once daily for 3 days measured after 3 days; set-up: dose 200 mg, time 0 - last, route oral; settings: in vivo, 72 h
Homo sapiens [9] = experiment: AUC (0 to infinity) in healthy human plasma assessed as EDP-420 9-keto level at 200 mg, po once daily for 3 days measured after 3 days; set-up: dose 200 mg, time infinity, route oral; settings: in vivo, 72 h
Homo sapiens [10] = experiment: Ratio of AUC (0 to 24 hrs) in healthy human plasma assessed as EDP-420 9-keto level at 200 mg, po once daily for 3 days measured on day 3 to AUC (0 to 24 hrs) in healthy human plasma assessed as EDP-420 9-keto level at 200 mg, po once daily for 3 days measured on day 1; settings: in vivo
Homo sapiens [11] = experiment: Half life in healthy human plasma assessed as EDP-420 9-keto level at 200 mg, po administered as once daily for 3 days measured after 3 days; settings: in vivo, 72 h
Homo sapiens [12] = experiment: Cmax in healthy human plasma assessed as EDP-420 9-keto level at loading dose of 400 mg/day, po once daily for 3 days measured after 1 day by HPLC-tandem mass spectrometry; set-up: dose 400 mg/day, route oral; settings: in vivo, 24 h
Homo sapiens [13] = experiment: Tmax in healthy human plasma assessed as EDP-420 9-keto level at loading dose of 400 mg/day, po once daily for 3 days measured after 1 day; settings: in vivo, 24 h
Homo sapiens [14] = experiment: Cmax in healthy human plasma assessed as EDP-420 9-keto level at 400 mg administered once on day 1 followed by 200 mg once daily for 2 days during 3 days of treatment measured after 3 days by HPLC-tandem mass spectrometry; set-up: dose 400 mg; settings: in vivo, 72 h
Homo sapiens [15] = experiment: AUC (0 to last) in healthy human plasma assessed as EDP-420 9-keto level at 400 mg administered once on day 1 followed by 200 mg once daily for 2 days during 3 days of treatment measured after 3 days; set-up: dose 400 mg, time 0 - last; settings: in vivo, 72 h
Homo sapiens [16] = experiment: AUC (0 to infinity) in healthy human plasma assessed as EDP-420 9-keto level at 400 mg administered once on day 1 followed by 200 mg once daily for 2 days during 3 days of treatment measured after 3 days; set-up: dose 400 mg, time infinity; settings: in vivo, 72 h
Homo sapiens [17] = experiment: Ratio of AUC (0 to 24 hrs) in healthy human plasma assessed as EDP-420 9-keto level at loading dose of 400 mg/day, po administered as single dose measured on 1 day to AUC (0 to 24 hrs) in healthy human plasma assessed as EDP-420 9-keto level at 400 mg administered once on day 1 followed by 200 mg once daily for 2 days during 3 days of treatment measured on day 3; settings: in vivo
Homo sapiens [18] = experiment: Half life in healthy human plasma assessed as EDP-420 9-keto level at 400 mg administered once on day 1 followed by 200 mg once daily for 2 days during 3 days of treatment measured after 3 days; settings: in vivo, 72 h
Homo sapiens [19] = experiment: Cmax in 8 hrs fasted healthy human plasma assessed as EDP-420 9-keto level at 200 mg, po administered as single dose of suspension by HPLC-tandem mass spectrometry; set-up: dose 200 mg, route oral; settings: in vivo
Homo sapiens [20] = experiment: Cmax in 8 hrs fasted healthy human plasma assessed as EDP-420 9-keto level at 200 mg, po administered as single dose of two-100 mg capsules by HPLC-tandem mass spectrometry; set-up: dose 200 mg, route oral; settings: in vivo
Homo sapiens [21] = experiment: Cmax in high-fat fed healthy human plasma assessed as EDP-420 9-keto level at 200 mg, po administered as single dose of two-100 mg capsules by HPLC-tandem mass spectrometry; set-up: dose 200 mg, route oral; settings: in vivo
Homo sapiens [22] = experiment: Tmax in 8 hrs fasted healthy human plasma assessed as EDP-420 9-keto level at 200 mg, po administered as single dose of suspension; settings: in vivo
Homo sapiens [23] = experiment: Tmax in 8 hrs fasted healthy human plasma assessed as EDP-420 9-keto level at 200 mg, po administered as single dose of two-100 mg capsules; settings: in vivo
Homo sapiens [24] = experiment: Tmax in high-fat fed healthy human plasma assessed as EDP-420 9-keto level at 200 mg, po administered as single dose of two-100 mg capsules; settings: in vivo
Homo sapiens [25] = experiment: AUC (0 to last) in 8 hrs fasted healthy human plasma assessed as EDP-420 9-keto level at 200 mg, po administered as single dose of suspension; set-up: dose 200 mg, time 0 - last, route oral; settings: in vivo
Homo sapiens [26] = experiment: AUC (0 to last) in 8 hrs fasted healthy human plasma assessed as EDP-420 9-keto level at 200 mg, po administered as single dose of two-100 mg capsules; set-up: dose 200 mg, time 0 - last, route oral; settings: in vivo
Homo sapiens [27] = experiment: AUC (0 to last) in high-fat fed healthy human plasma assessed as EDP-420 9-keto level at 200 mg, po administered as single dose of two-100 mg capsules; set-up: dose 200 mg, route oral, time 0 - last; settings: in vivo
Homo sapiens [28] = experiment: AUC (0 to infinity) in 8 hrs fasted healthy human plasma assessed as EDP-420 9-keto level at 200 mg, po administered as single dose of suspension; set-up: dose 200 mg, time infinity, route oral; settings: in vivo
Homo sapiens [29] = experiment: AUC (0 to infinity) in 8 hrs fasted healthy human plasma assessed as EDP-420 9-keto level at 200 mg, po administered as single dose of two-100 mg capsules; set-up: dose 200 mg, time infinity, route oral; settings: in vivo
Homo sapiens [30] = experiment: AUC (0 to infinity) in high-fat fed healthy human plasma assessed as EDP-420 9-keto level at 200 mg, po administered as single dose of two-100 mg capsules; set-up: dose 200 mg, time infinity, route oral; settings: in vivo
Homo sapiens [31] = experiment: Half life in 8 hrs fasted healthy human plasma assessed as EDP-420 9-keto level at 200 mg, po administered as single dose of suspension; settings: in vivo
Homo sapiens [32] = experiment: Half life in 8 hrs fasted healthy human plasma assessed as EDP-420 9-keto level at 200 mg, po administered as single dose of two-100 mg capsules; settings: in vivo
Homo sapiens [33] = experiment: Half life in high-fat fed healthy human plasma assessed as EDP-420 9-keto level at 200 mg, po administered as single dose of two-100 mg capsules; settings: in vivo
Homo sapiens [34] = experiment: Ratio of drug concentration in 8 hrs fasted healthy human plasma at 200 mg, po administered as single dose of suspension to drug concentration in 8 hrs fasted healthy human plasma assessed as EDP-420 9-keto level at 200 mg, po administered as single dose of suspension; settings: in vivo
Homo sapiens [35] = experiment: Ratio of drug concentration in high-fat fed healthy human plasma at 200 mg, po administered as single dose of two-100 mg capsules to drug concentration in high-fat fed healthy human plasma assessed as EDP-420 9-keto level at 200 mg, po administered as single dose of two-100 mg capsules; settings: in vivo

concentration at 24 h [1]: 90 ng/mL
concentration at 24 h [2]: 30800 ng/mL
SMILES: CC[C@H]1OC(=O)[C@H](C)[C@@H](O[C@H]2C[C@@](C)(OC)[C@@H](O)[C@H](C)O2)[C@H](C)[C@@H](O[C@@H]2O[C@H](C)C[C@H](N(C)C)[C@H]2O)[C@](C)(O)C[C@@H](C)CN(C)[C@H](C)[C@@H](O)[C@]1(C)O [AZITHROMYCIN]

Cmax (Homo sapiens [3]): 30.5 ng/mL
Cmax (Homo sapiens [4]): 46 ng/mL
Tmax (Homo sapiens [5]): 5 h
Tmax (Homo sapiens [6]): 5 h
AUC (Homo sapiens [7]): 461 ng·h/mL
AUC (Homo sapiens [8]): 2134 ng·h/mL
AUC (Homo sapiens [9]): 2209 ng·h/mL
Ratio AUC (Homo sapiens [10]): 1.76
t1/2 (Homo sapiens [11]): 29.5 h
Cmax (Homo sapiens [12]): 49 ng/mL
Tmax (Homo sapiens [13]): 5 h
Cmax (Homo sapiens [14]): 47.6 ng/mL
AUC (Homo sapiens [15]): 2154 ng·h/mL
AUC (Homo sapiens [16]): 2228 ng·h/mL
Ratio AUC (Homo sapiens [17]): 1.11
t1/2 (Homo sapiens [18]): 27.8 h
Cmax (Homo sapiens [19]): 24.9 ng/mL
Cmax (Homo sapiens [20]): 23.7 ng/mL
Cmax (Homo sapiens [21]): 36.1 ng/mL
Tmax (Homo sapiens [22]): 5 h
Tmax (Homo sapiens [23]): 5 h
Tmax (Homo sapiens [24]): 6 h
AUC (Homo sapiens [25]): 754 ng·h/mL
AUC (Homo sapiens [26]): 745 ng·h/mL
AUC (Homo sapiens [27]): 1220 ng·h/mL
AUC (Homo sapiens [28]): 842 ng·h/mL
AUC (Homo sapiens [29]): 837 ng·h/mL
AUC (Homo sapiens [30]): 1326 ng·h/mL
t1/2 (Homo sapiens [31]): 29.5 h
t1/2 (Homo sapiens [32]): 30.5 h
t1/2 (Homo sapiens [33]): 28.4 h
Ratio (Homo sapiens [34]): 0.1
Ratio (Homo sapiens [35]): 0.16
SMILES: CC[C@H]1OC(=O)[C@H](C)C(=O)[C@H](C)[C@@H](O[C@@H]2O[C@H](C)C[C@H](N(C)C)[C@H]2O)[C@@]2(C)C[C@@H](C)C(=O)[C@H](C)[C@@H](OC/C(=N\OCc3ccc(-n4cccn4)nc3)CO2)[C@]1(C)O
